Consider 18 compounds from US7659277B2, “Ubiquitin ligase inhibitors and methods related thereto” (Proteologies, Ltd., priority 2003, dated 2010).

The subject of one assay is HIV-1. Nature of the assay: HIV maturation (budding) in virus-like particle assay, HIV-1 p24 antigen ELISA. Format: cell-based. Particulars: Human immunodeficiency virus 1, read-out: Budding (3 μM). The source says: Compounds were further assessed for effects on maturation of HIV particles in a virus-like particle assay.
For orientation: ELISA stands for enzyme-linked immunosorbent assay.

In the next assay the target is Hmdm2 (Homo sapiens, UniProt Q00987). Nature of the assay: Selectivity (% A in 1 μM), ubiquitin ligase activity of Hmdm2. The assay is classed as biochemical. Conditions: read-out: Selectivity (% A* in 1 μM) Hmdm2.
For another assay, the target named is T1, POSH (Homo sapiens, UniProt Q7Z6J0).
T1 construct: GST-POSH lot NB81/p.118 3.6 mg/ml; fused on or other part: GST tag, used for detection with anti-GST XL665
T1 sequence (Q7Z6J0 1-269 limits assumed): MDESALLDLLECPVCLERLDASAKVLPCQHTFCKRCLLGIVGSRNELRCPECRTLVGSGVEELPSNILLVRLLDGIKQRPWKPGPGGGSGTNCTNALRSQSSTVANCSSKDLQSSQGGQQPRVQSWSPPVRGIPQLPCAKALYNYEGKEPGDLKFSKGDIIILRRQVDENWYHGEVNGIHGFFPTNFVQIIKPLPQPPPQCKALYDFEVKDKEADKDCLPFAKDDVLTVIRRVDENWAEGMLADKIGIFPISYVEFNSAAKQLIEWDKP
Put plainly: Selectivity (% A in 1 μM), ubiquitin ligase activity of POSH. Format: biochemical. Particulars: read-out: Selectivity (% A* in 1 μM) POSH. The method in brief: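 GST-POSH at 33 nM was preincubated 30 min at RT with compounds (1 mM stocks in DMSO, 5 μl into 100 μl) before addition to the E1/E2 enzyme mix. Dose-response runs used 44 nM to 4.44 μM compound in triplicate, with DMSO-only and no-E3 controls.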

Another assay concerns the target c-cbl (Homo sapiens, UniProt P22681). Put plainly: Selectivity (% A in 1 μM), ubiquitin ligase activity of c-cbl. The assay is classed as biochemical. Particulars: % activity at 1 μM compound; control is related to 100% activity; HTS protocol.
The test system of the next assay is E2 protein. Format: biochemical. Particulars: % activity at 1 μM compound; control is related to 100% activity; HTS protocol.
Setting [1] is: % activity at 1 μM compound, control is related to 100% activity, HTS protocol.

The structures appear in SMILES notation. Where two headings read alike, the source gives them in different places.

Sequence of Hmdm2 (Q00987 whole entry): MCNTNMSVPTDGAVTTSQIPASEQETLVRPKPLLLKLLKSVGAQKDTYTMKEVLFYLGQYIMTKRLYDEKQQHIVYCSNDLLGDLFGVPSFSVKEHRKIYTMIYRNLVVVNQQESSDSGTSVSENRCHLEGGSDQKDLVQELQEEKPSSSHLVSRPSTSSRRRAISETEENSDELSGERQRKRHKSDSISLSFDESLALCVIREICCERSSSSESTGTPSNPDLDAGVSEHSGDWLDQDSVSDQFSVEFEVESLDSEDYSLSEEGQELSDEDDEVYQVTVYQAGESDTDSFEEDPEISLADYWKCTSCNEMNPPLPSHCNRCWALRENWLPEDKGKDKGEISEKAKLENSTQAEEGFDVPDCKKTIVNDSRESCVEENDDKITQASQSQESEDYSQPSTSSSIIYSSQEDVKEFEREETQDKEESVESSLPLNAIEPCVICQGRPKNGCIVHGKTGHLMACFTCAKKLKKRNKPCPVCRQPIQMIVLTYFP

Turning to `Cc1cc(O)c(C(=O)/C=C/c2cccc(I)c2)c(=O)o1` [Compound 87], the activity at 3 µM in the assay with HIV-1 was 29%. Also, the remaining activity at 1 µM at Hmdm2 was 119%; on POSH it was 33%.

In the case of `O=C(Nc1cccc2c(NC(=O)C3C4CCCCC43)cccc12)C1C2CCCCC21` (stereo not shown) [Compound 97], the activity at 3 µM in the assay with HIV-1 was 64%. Besides, the remaining activity at 1 µM at Hmdm2 was determined as 123%; on POSH it was 13%.

In the case of `Cc1ccc(C(=O)NN=C2CCC(=NNC(=O)c3ccc(C)cc3)CC2)cc1` [Compound 93], the remaining activity at 1 µM at c-cbl stood at 84%; on Hmdm2 (setting [1]), 106%; on POSH (setting [1]), 21%. Also, the “Selectivity (% A* in 1 μM) E2” value with E2 protein is listed as 78%.

Regarding `O=C(/C=C/c1cccnc1)c1ccc(C(=O)/C=C/c2cccnc2)cc1` [Compound 92], the figures for the remaining activity at 1 µM on c-cbl, at Hmdm2 (setting [1]) and on POSH (setting [1]) were 111%, 105% and 21%, respectively. In the assay on E2 protein, the “Selectivity (% A* in 1 μM) E2” value was 125%.

`O=C(NCc1ccc(Cl)cc1)C(=O)Nc1ccccc1` [Compound 104]: the remaining activity at 1 µM at c-cbl was found to be 140%; at Hmdm2 (setting [1]), 145%; on POSH (setting [1]), 111%. The “Selectivity (% A* in 1 μM) E2” value with E2 protein is 113%.

For `Cc1[nH]c(=O)c(C(=O)/C=C/c2ccccc2F)c2c1CCCC2` [Compound 95], the results for the remaining activity at 1 µM on c-cbl, at Hmdm2 (setting [1]) and on POSH (setting [1]) were 136%, 98% and 12%, respectively. In addition, in the assay on E2 protein, the “Selectivity (% A* in 1 μM) E2” value is 100%.

In the case of `COC(=O)C1=C(C(=O)OC)SC(=C2C(=S)C(C)(C)N(C(C)=O)c3cc(C)ccc32)S1` [Compound 99], the remaining activity at 1 µM on c-cbl was 88%; at Hmdm2 (setting [1]) it was 101%; on POSH (setting [1]), 36%. The “Selectivity (% A* in 1 μM) E2” value with E2 protein came to 89%.

For the compound `CN(C)c1ccc(/C=C2/C(=O)NC(=O)N(C3CCCCC3)C2=O)cc1` [Compound 3], the remaining activity at 1 µM at Hmdm2 (setting [1]) was found to be 102%; on POSH (setting [1]) it was 47%.

For `O=C1c2ccccc2-c2nc3nonc3nc21` [Compound 91], the activity at 3 µM in the assay on HIV-1 came out at 33%. In addition, the remaining activity at 1 µM at Hmdm2 is 62%; at POSH, 11%.

For `O=C(Cc1ccccc1)N1N=CCC1(O)c1ccc(F)cc1` (stereo not shown) [Compound 94], the values for the remaining activity at 1 µM on c-cbl, at Hmdm2 (setting [1]) and on POSH (setting [1]) were 106%, 103% and 71%, respectively. Also, the “Selectivity (% A* in 1 μM) E2” value with E2 protein was determined as 49%.

Consider `O=C(O)COc1ccc2c(c1)oc(=O)c1ccccc12` [Compound 85], for which the activity at 3 µM in the assay with HIV-1 was 59%. Also, the remaining activity at 1 µM was 94% at Hmdm2 and 26% on POSH.

Regarding `COc1ccc(C(=O)CC2=C(O)C(=O)c3ccccc3C2=O)cc1` [Compound 89], the figures for the remaining activity at 1 µM on c-cbl, on Hmdm2 (setting [1]) and on POSH (setting [1]) were 109%, 79% and 45%, respectively. The “Selectivity (% A* in 1 μM) E2” value in the assay on E2 protein is 70%.

In the case of `COc1ccc(Nc2ccc(O)c3c2C(=O)c2ccccc2C3=O)cc1` [Compound 100], the remaining activity at 1 µM on c-cbl was 100%; at Hmdm2 (setting [1]) it was 75%; at POSH (setting [1]) it was 99%. Further, the “Selectivity (% A* in 1 μM) E2” value with E2 protein was 59%.

`Cc1cc(OC(=O)Cn2c(=O)sc3ccccc32)ccc1Cl` [Compound 103]: in the assay with HIV-1, the activity at 3 µM is 69%. For the same compound, the remaining activity at 1 µM was 100% on Hmdm2 and 102% at POSH.

As for `COc1cc(C2Nc3ccccc3NC3=C2C(=O)CC(C)(C)C3)cc(Br)c1O` (stereo not shown) [Compound 102], the remaining activity at 1 µM on c-cbl came to 111%; on Hmdm2 (setting [1]), 97%; at POSH (setting [1]), 52%. Further, the “Selectivity (% A* in 1 μM) E2” value in the assay with E2 protein is listed as 99%.

Regarding `O=C1NC(=O)N(c2ccccc2)C(=O)/C1=C\c1ccc2c(c1)OCO2` [Compound 4], the remaining activity at 1 µM worked out at 105% at Hmdm2 (setting [1]) and 48% on POSH (setting [1]).

Turning to `O=C(NC(C(Cl)(Cl)Cl)S(=O)(=O)c1ccccc1)c1ccc(Cl)cc1Cl` (stereo not shown) [Compound 88], in the assay with HIV-1, the activity at 3 µM was 57%. Further, the remaining activity at 1 µM at Hmdm2 is 118%; on POSH it was 172%.

Consider `O=c1oc2ccccc2c(O)c1C(=S)Nc1ccccc1` [Compound 96], for which, in the assay with HIV-1, the activity at 3 µM turned out to be 56%. The remaining activity at 1 µM on Hmdm2 was 90%; on POSH, 105%.
